# Experimental data: ChEMBL document CHEMBL6103539, “A critical analysis of design, binding pattern and SAR of benzo-fused heteronuclear compounds as VEGFR-2 inhibitors” (Bioorg Med Chem, 2024)
# pIC50: −log10 of the molar value.
# Columns and labels:
# A549 [1] = experiment: Cytotoxicity against human A549 cells; assay type: functional, cell-based
# DU-145 [2] = experiment: Cytotoxicity against human DU-145 cells; assay type: functional, cell-based
# MCF7 [3] = experiment: Cytotoxicity against human MCF7 cells; assay type: functional, cell-based
# NCI-H460 = experiment: Cytotoxicity against human NCI-H460 cells assessed as reduction in cell growth incubated for 24 hrs by MTT assay; assay type: functional, cell-based; details: NCI-H460, 24 h
# [4] = molecular target: T1, Vascular endothelial growth factor receptor 2 (Homo sapiens, UniProt P35968); experiment: Inhibition of GST-tagged human recombinant VEGFR2 at 10 uM using Poly(4:1 Glu, Tyr) as substrate by Kinase-Glo Max reagent based luminescence analysis relative to control
# T1 sequence (P35968 whole entry): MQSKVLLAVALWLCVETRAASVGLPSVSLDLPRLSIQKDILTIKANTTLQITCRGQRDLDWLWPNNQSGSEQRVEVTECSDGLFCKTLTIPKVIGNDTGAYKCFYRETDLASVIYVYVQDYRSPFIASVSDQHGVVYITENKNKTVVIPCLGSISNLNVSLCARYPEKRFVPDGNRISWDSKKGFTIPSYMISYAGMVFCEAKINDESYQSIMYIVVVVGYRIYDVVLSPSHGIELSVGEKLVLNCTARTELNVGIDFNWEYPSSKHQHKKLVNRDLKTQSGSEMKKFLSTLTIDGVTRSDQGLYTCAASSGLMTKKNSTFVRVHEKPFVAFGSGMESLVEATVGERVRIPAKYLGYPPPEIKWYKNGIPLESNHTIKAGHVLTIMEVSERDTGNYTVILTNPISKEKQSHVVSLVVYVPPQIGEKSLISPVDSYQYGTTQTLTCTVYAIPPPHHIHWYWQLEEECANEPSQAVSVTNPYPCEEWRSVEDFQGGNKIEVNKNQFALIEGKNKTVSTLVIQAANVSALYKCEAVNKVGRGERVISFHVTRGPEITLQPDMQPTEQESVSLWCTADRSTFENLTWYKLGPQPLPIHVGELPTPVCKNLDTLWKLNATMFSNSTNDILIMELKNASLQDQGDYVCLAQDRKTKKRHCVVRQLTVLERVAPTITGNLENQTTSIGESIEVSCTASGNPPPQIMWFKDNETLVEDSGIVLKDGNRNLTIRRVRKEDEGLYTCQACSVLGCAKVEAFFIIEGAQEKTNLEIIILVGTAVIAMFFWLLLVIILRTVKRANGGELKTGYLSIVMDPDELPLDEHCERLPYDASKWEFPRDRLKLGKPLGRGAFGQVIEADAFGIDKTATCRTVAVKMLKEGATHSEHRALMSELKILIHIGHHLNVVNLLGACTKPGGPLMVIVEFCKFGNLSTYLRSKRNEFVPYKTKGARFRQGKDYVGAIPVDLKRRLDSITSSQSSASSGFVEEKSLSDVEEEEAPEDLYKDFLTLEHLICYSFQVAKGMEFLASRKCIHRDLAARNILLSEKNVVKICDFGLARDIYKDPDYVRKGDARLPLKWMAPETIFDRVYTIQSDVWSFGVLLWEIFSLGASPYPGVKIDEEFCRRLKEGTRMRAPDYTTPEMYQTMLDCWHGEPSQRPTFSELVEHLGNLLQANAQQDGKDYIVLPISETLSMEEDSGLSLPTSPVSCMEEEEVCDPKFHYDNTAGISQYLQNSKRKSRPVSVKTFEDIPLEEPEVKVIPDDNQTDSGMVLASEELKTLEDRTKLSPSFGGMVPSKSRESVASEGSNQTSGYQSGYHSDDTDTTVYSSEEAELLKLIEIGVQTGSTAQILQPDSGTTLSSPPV
# A549 [5] = experiment: Cytotoxicity against human A549 cells assessed as reduction in cell growth incubated for 24 hrs by MTT assay; assay type: functional, cell-based; details: A549, 24 h
# [6] = molecular target: T1, Vascular endothelial growth factor receptor 2; experiment: Inhibition of VEGFR-2 (unknown origin)
# MCF7 [7] = experiment: Anticancer activity against human MCF7 cells; assay type: functional, cell-based
# HepG2 [8] = experiment: Anticancer activity against human HepG2 cells; assay type: functional, cell-based
# HCT-116 [9] = experiment: Anticancer activity against human HCT-116 cells; assay type: functional, cell-based
# [10] = molecular target: T1, Vascular endothelial growth factor receptor 2; experiment: Inhibition of VEGFR2 in human MCF7 cells by horseradish peroxidase-coupled TMB substrate based ELISA; assay type: cell-based
# MCF7 [11] = experiment: Cytotoxicity against human MCF7 cells assessed as reduction in cell viability incubated for 48 hrs by SRB assay; assay type: functional, cell-based; details: MCF7, 48 h
# MCF7 [12] = experiment: Antiproliferative activity against human MCF7 cells assessed as cell growth inhibition measured for 24 hrs by MTT assay; assay type: functional, cell-based; details: MCF7, 24 h
# HepG2 [13] = experiment: Antiproliferative activity against human HepG2 cells assessed as cell growth inhibition measured for 24 hrs by MTT assay; assay type: functional, cell-based; details: HepG2, 24 h
# MCF7 [14] = experiment: Growth inhibition of human MCF7 cells; assay type: functional
# MCF7 [15] = experiment: cells; details: Homo sapiens, MCF7, 72 h
# Description: Cytotoxicity against human MCF7 cells assessed as reduction in cell viability incubated for 72 hrs by MTT assay
# HCT-116 [16] = experiment: cells; details: Homo sapiens, HCT-116, 72 h
# Description: Cytotoxicity against human HCT-116 cells assessed as reduction in cell viability incubated for 72 hrs by MTT assay
# HepG2 [17] = experiment: cells; details: Homo sapiens, HepG2, 72 h
# Description: Cytotoxicity against human HepG2 cells assessed as reduction in cell viability incubated for 72 hrs by MTT assay
# [18] = molecular target: T1, Vascular endothelial growth factor receptor 2; experiment: Inhibition of VEGFR-2 (unknown origin) at 1 uM by ELISA method relative to control
# HeLa = experiment: Cytotoxicity against human HeLa cells assessed as reduction in cell viability incubated for 72 hrs by CCK-8 assay; assay type: functional, cell-based
# [19] = Cytotoxicity against human A549 cells assessed as reduction in cell viability incubated for 72 hrs by CCK-8 assay; assay type: toxicity, cell-based
# [20] = Cytotoxicity against human HUVEC cells assessed as reduction in cell viability incubated for 72 hrs by CCK-8 assay; assay type: toxicity, cell-based
# HT-29 = experiment: Cytotoxicity against human HT-29 cells assessed as reduction in cell viability incubated for 72 hrs by CCK-8 assay; assay type: functional, cell-based; details: HT-29, 72 h
# [21] = Cytotoxicity against human MDA-MB-435 cells assessed as reduction in cell viability incubated for 72 hrs by CCK-8 assay; assay type: toxicity, cell-based
# [22] = molecular target: T1, Vascular endothelial growth factor receptor 2; experiment: Inhibition of human VEGFR-2 by ELISA method
# MCF7 [23] = experiment: Cytotoxicity against human MCF7 cells assessed as reduction in cell viability incubated for 48 hrs by MTT assay; assay type: functional, cell-based; details: MCF7, 48 h
# [24] = molecular target: T1, Vascular endothelial growth factor receptor 2; experiment: Inhibition of VEGFR-2 in human MCF7 cells by ELISA method; assay type: cell-based
# HepG2 [25] = experiment: Anticancer activity against human HepG2 cells assessed as reduction in cell viability measured after 72 hrs by MTT assay; assay type: functional, cell-based; details: HepG2, 72 h
# MCF7 [26] = experiment: Antiproliferative activity against human MCF7 cells; assay type: functional, cell-based
# DU-145 [27] = experiment: Antiproliferative activity against human DU-145 cells; assay type: functional, cell-based
# HCT-116 [28] = experiment: Antiproliferative activity against human HCT-116 cells assessed as reduction in cell viability incubated for 48 hrs by MTT assay; assay type: functional, cell-based; details: HCT-116, 48 h
# A549 [29] = experiment: Antiproliferative activity against human A549 cells assessed as reduction in cell viability incubated for 48 hrs by MTT assay; assay type: functional, cell-based; details: A549, 48 h
# HepG2 [30] = experiment: Cytotoxicity against human HepG2 cells assessed as reduction in cell growth by MTT assay; assay type: functional, cell-based
# HCT-116 [31] = experiment: Cytotoxicity against human HCT-116 cells assessed as reduction in cell growth by MTT assay; assay type: functional, cell-based
# MCF7 [32] = experiment: Cytotoxicity against human MCF7 cells assessed as reduction in cell growth by MTT assay; assay type: functional, cell-based
compound,measurement,setting,value
COc1cc(/C=C2/C=C(c3nc4ccccc4[nH]3)NC2=O)cc(OC)c1OC,pIC50,A549 [1],5.08
same,pIC50,DU-145 [2],5.11
same,pIC50,MCF7 [3],5.14
Clc1ccc(/C=N/N=C(/c2ccccc2)c2ccc3nc(-c4ccc(Cl)cc4)[nH]c3c2)cc1,pIC50,NCI-H460,6.07
same,inhibition,[4],89.9%
same,pIC50,A549 [5],5.73
O=C(CN1C(=O)S/C(=C\c2ccc(F)cc2)C1=O)Nc1nc2ccc([N+](=O)[O-])cc2s1,pIC50,[6],7.04
same,pIC50,MCF7 [7],5.42
same,pIC50,HepG2 [8],5.10
same,pIC50,HCT-116 [9],5.25
COc1cc(-c2nc3ccccc3s2)ccc1OCC(=O)N/N=C/c1ccc([N+](=O)[O-])cc1,pIC50,[10],6.74
same,pIC50,MCF7 [11],4.55
Cc1ccc2oc(SCC(=O)Nc3ccc(C(=O)Nc4cccc(Cl)c4)cc3)nc2c1,pIC50,MCF7 [12],4.82
same,pIC50,HepG2 [13],4.98
COc1cc(/C=N/NC(=O)c2ccc(-c3nc4cc(C)ccc4[nH]3)cc2)cc(OC)c1OC,GI,MCF7 [14],84.33 µM
COc1cc(/C=N/NC(=O)COc2ccc(-c3nc4ccccc4s3)cc2OC)ccc1O,pIC50,[10],6.77
same,pIC50,MCF7 [11],5.18
O=C(CCSc1nc2ccccc2o1)Nc1nnc(-c2ccccc2)s1,pIC50,MCF7 [15],5.10
same,pIC50,HCT-116 [16],5.16
same,pIC50,HepG2 [17],5.00
Cc1ccc2oc(SCCC(=O)Nc3nnc(-c4ccccc4)s3)nc2c1,pIC50,MCF7 [15],5.13
same,pIC50,HCT-116 [16],5.24
same,pIC50,HepG2 [17],5.02
CCNC(=S)NS(=O)(=O)c1ccc(NC(=O)CCSc2nc3cc(C)ccc3o2)cc1,pIC50,MCF7 [15],4.80
same,pIC50,HCT-116 [16],4.90
same,pIC50,HepG2 [17],5.00
Cn1c(COC(=O)c2c[nH]c3ccccc23)nc2ccccc21,inhibition,[18],33.9%
same,pIC50,HeLa,6.57
same,IC50 at 72 h,[19],0.21 µM
same,IC50 at 72 h,[20],0.26 µM
same,pIC50,HT-29,6.44
same,IC50 at 72 h,[21],0.54 µM
COc1ccc2[nH]cc(C(=O)OCc3nc4ccccc4n3C)c2c1,inhibition,[18],36.7%
same,pIC50,HeLa,6.59
same,IC50 at 72 h,[19],0.3 µM
same,IC50 at 72 h,[20],0.32 µM
same,pIC50,HT-29,6.59
same,IC50 at 72 h,[21],0.45 µM
Cc1ccc2oc(SCC(=O)Nc3ccc(C(=O)Nc4ccc(O)cc4)cc3)nc2c1,pIC50,MCF7 [12],4.74
same,pIC50,HepG2 [13],5.15
O=[N+]([O-])c1ccc(CNc2cccc(-c3nc4ccccc4[nH]3)c2)cc1,pIC50,[22],8.17
same,pIC50,MCF7 [23],5.47
same,pIC50,[24],8.17
COc1ccccc1NC(=O)c1ccc(NC(=O)CSc2nc3ccccc3o2)cc1,pIC50,MCF7 [12],5.40
same,pIC50,HepG2 [13],5.40
COc1ccc(-c2nn(-c3ccccc3)cc2/C=C2/S/C(=N\N=C(/C)c3nc4ccccc4[nH]3)N(c3ccc(Cl)cc3)C2=O)cc1,IC50,HepG2 [25],11 µg/mL
same,pIC50,MCF7 [23],5.23
COC(=O)COc1ccc(/C=N/NC(=O)COc2ccc(-c3nc4ccccc4s3)cc2OC)cc1OC,pIC50,[10],6.89
same,pIC50,MCF7 [11],4.66
COc1nc(C(=O)Nc2nc3cc(F)ccc3[nH]2)ccc1-n1cnc(C)c1,pIC50,MCF7 [26],5.05
same,pIC50,DU-145 [27],5.04
Cc1ccc2[nH]c(-c3ccc(C(=O)N/N=C/c4ccc(Cl)cc4Cl)cc3)nc2c1,GI,MCF7 [14],30.51 µM
O=C(CCc1nnc2sc(CCc3ccccc3)nn12)c1nc2cc([N+](=O)[O-])ccc2[nH]1,pIC50,HCT-116 [28],5.66
same,pIC50,A549 [29],4.96
COc1cc(/C=N/NC(=O)c2nnn(Cc3nc4ccccc4[nH]3)c2C)ccc1O,pIC50,HepG2 [30],4.96
same,pIC50,[6],6.64
same,pIC50,HCT-116 [31],5.48
same,pIC50,MCF7 [32],5.15
